In patent publication US11464789B2, “Aminosterol compositions and methods of using the same for treating schizophrenia” (Enterin, Inc., priority 2018, dated 2022):
Several values for one entry are separate records, joined by “and”; a condition that tells them apart may be missing. Equal values may be shown once. Entries after “also recorded” stand apart in the source; their conditions may differ. Read-outs that look alike come from different tables or passages of the source. One block for each compound: values may come before it.

Experiments:
[1] = test system: patients with PD and constipation; assay: Effect on bowel function, Phase 2 trial (Stage 1 single dose, Stage 2 daily dosing); assay type: in vivo, human
Method: Overview: The subjects of the trial all had PD and experienced constipation, which is a characteristic of PD. The primary objectives of the trial involving patients with PD and constipation were to evaluate the safety and pharmacokinetics of oral squalamine (ENT-01) and to identify the dose required to improve bowel function, which was used as a clinical endpoint.
ENT-01 is the phosphate salt of squalamine. For this study it has been formulated as a small 25 mg coated tablet. Dosing ranged from 25 mg to 250 mg, with dosages greater than 25 mg requiring multiple pills (e.g., 50 mg=two 25 mg pills). Dosing instructions=take 60 mins before breakfast with 8 oz. water. The dose was taken by each patient upon awakening on an empty stomach along with 8 oz. of water simultaneously to dopamine. The subject was not allowed to ingest any food for at least 60 minutes after study medication. The compound is highly charged and will adsorb to foodstuffs, so it was administered prior to feeding.
Following successful screening, all subjects underwent a 14-day run-in period where the degree of constipation was assessed through a validated daily log (Zinsmeister et al. 2013) establishing baseline CSBMs/week. Subjects with an average of <3 CSBMs/week proceeded to dosing.
(§1) Tolerability limits included diarrhea or vomiting.
(§2) In Stage 2, 34 patients were evaluated.
The primary efficacy outcome variable was whether or not a subject was a “success” or “failure”. This is an endpoint based on subject diary entries for the “fixed dose” period prior to the endpoint assessment defined as average complete stool frequency increase by 1 or more over baseline, or 3 or more complete spontaneous stools/week. The subject was deemed a “success” if s/he met one or more of the criteria listed above, otherwise the subject was deemed a “failure”. The primary analysis was based on all subjects with a baseline assessment and an assessment at the end of the “fixed-dose” period and was a comparison of the proportion of successes with 0.10 (the null hypothesis corresponding to no treatment effect).

[2] = test system: patients with PD and constipation; assay: Safety and adverse event profile, Phase 2 trial; assay type: in vivo, human
Method: as §1, §2

[3] = Pharmacokinetics of orally administered squalamine (ENT-01), Phase 2 trial; assay type: in vivo, human; conditions: for oral bio-availability (estimated): based on pharmacokinetic behavior of intravenously administered squalamine in prior clinical studies; for systemic absorption following oral administration: this study, PD patients
Method: PK data were collected on the 10 patients enrolled in Stage 1 and 10 patients enrolled in Stage 2 to determine the extent of systemic absorption. In Stage 1, PK data were obtained at each visit, pre-medication, at 1, 2, 4, 8 and 24 hours (Table 10). In Stage 2, PK was measured on days 1 and 6 of the randomization period pre-medication, at 1, 2, 4 and 8 hours (Table 11).
The mean Cmax, Tmax and T1/2 and AUC of the squalamine ion following squalamine (ENT-01) oral dosing for Stage 1 patients. The PK analyses are only approximate, as the lower limit of the validated concentration range was 10 ng/ml; most of the measured concentrations fell below that value. The mean Cmax, Tmax and T1/2 and AUC of the squalamine ion following squalamine (ENT-01) oral dosing for Stage 2 patients. The PK analyses are only approximate, as the lower limit of the validated concentration range was 0.5 ng/ml.

[4] = test system: patients with PD and constipation; assay: CNS symptoms in Stage 2 (UPDRS, MMSE, PDHQ, BDI-II, hallucinations); assay type: in vivo, human; conditions: 6 patients with hallucinations (5) or delusions (1) at baseline
Description: (8) Beck Depression Inventory (BDI-II);
(9) Unified Parkinson's Disease Rating Scale (UPDRS), which consists of 42 items in four subscales (Part I=Non-Motor Aspects of Experiences of Daily Living (nM-EDL) (1.1 cognitive impairment, 1.2 hallucinations and psychosis, 1.3 depressed mood, Part II=Motor Aspects of Experiences of Daily Living (M-EDL), Part III=Motor Examination, and Part IV=Motor Complications;
(10) Mini Mental State Examination (MMSE);
(12) The University of Miami Parkinson's Disease Hallucinations Questionnaire (UM-PDHQ); […]
Assessments were made at baseline and at the end of the fixed dose and washout periods. Circadian system status was evaluated by continuously monitoring wrist skin temperature (Thermochron iButton DS1921H; Maxim, Dallas) following published procedures (Sarabia et al. 2008). […]

[5] = test system: patients with PD and constipation; assay: Sleep diary (total sleep time, REM-behavior disorder); assay type: in vivo, human; conditions: beyond 125 mg
Method: FIG. 3 is a chart of total sleep time in relation to squalamine dose. Total sleep time was obtained from the sleep diary by subtracting awake time during the night from total time spent in bed. Total sleep time per night was logged for each patient at baseline, each dosing period and at washout, and the means were determined. The light grey bar represents the baseline value for each cohort at a given dose level and the dark grey bar represents the value for the same cohort at the stated dose of squalamine (ENT-01). The number of patients represented at each value are: Baseline, 33; 75 mg, 21; 100 mg, 28; 125 mg, 18; 150 mg, 15; 175 mg, 12; 200 mg, 7; 225 mg, 3; 250 mg, 2; washout, 33. P values were as follows: 75 mg, p=0.4; 100 mg, p=0.1; 125 mg, p=0.3; 150 mg, p=0.07; 175 mg, p=0.03; 200 mg, p=0.3; 225 mg, p=0.5; 250 mg, p=0.3; wash-out, p=0.04 (paired t test).
(5) Sleep Diary (participants completed a sleep diary on a daily basis throughout the study. The diaries included time into bed and estimated time to sleep as well as wake time and duration during the night); […]

[6] = test system: patients with PD and constipation; assay: Circadian rhythm of wrist skin temperature; assay type: in vivo, human; conditions: for effect on circadian rhythm of skin temperature: oral administration, 12 patients with evaluable data
Method: (6) I-Button Temperature Assessment. The I-Button is a small, rugged self-sufficient system that measures temperature and records the results in a protected memory section. The Thermochron I-Button DS1921H (Maxim Integrated, Dallas, Tex.) was used for skin temperature measurement. I-Buttons were programmed to sample every 10 mins., and attached to a double-sided cotton sport wrist band using Velcro, with the sensor face of the I-Button placed over the inside of the wrist, on the radial artery of the dominant hand. Subjects removed and replaced the data logger when necessary (i.e., to have a bath or shower). The value of skin temperature assessment in sleep research is that the endogenous skin warming resulting from increased skin blood flow is functionally linked to sleep propensity. From the collected data, the mesor, amplitude, acrophase (time of peak temperature), Rayleight test (an index of interdaily stability), mean waveforms are calculated);
Assessments were made at baseline and at the end of the fixed dose and washout periods. Circadian system status was evaluated by continuously monitoring wrist skin temperature (Thermochron iButton DS1921H; Maxim, Dallas) following published procedures (Sarabia et al. 2008).
Circadian rhythm of skin temperature was evaluable in 12 patients (i.e., those who had recordings that extended from baseline through washout). Circadian system functionality was evaluated by continuously monitoring wrist skin temperature using a temperature sensor (Thermochron iButton DS1921H; Maxim, Dallas, Tex.) (Sarabia et al. 2008). A nonparametric analysis was performed for each participant to characterize DST as previously described (Sarabia et al. 2008; Ortiz-Tudela et al. 2010).
Briefly, this analysis includes the following parameters: (i) the inter-daily stability (the constancy of 24-hour rhythmic pattern over days, IS); (ii) intra-daily variability (rhythm fragmentation, IV); (iii) average of 10-minute intervals for the 10 hours with the minimum temperature (L10); (iv) average of 10-minute intervals for the 5 hours with the maximum temperature (M5) and the relative amplitude (RA), which was determined by the difference between M5 and L10, divided by the sum of both. Finally, the Circadian Function Index (CFI) was calculated by integrating IS, IV, and RA. Consequently, CFI is a global measure that oscillates between 0 for the absence of circadian rhythmicity and 1 for a robust circadian rhythm (Ortiz-Tudela et al. 2010).

[7] = rats, prior studies; cited from earlier work
[8] = dogs, prior studies; cited from earlier work
[9] = mice, prior studies; cited from earlier work
mouse models of PD = conditions: orally administered, mice with constipation due to overexpression of human αS (West et al, manuscript in preparation); cited from earlier work
[10] = test system: IPANs (intrinsic primary afferent neuron); conditions: isolated bowel segment, PD mouse model; increasing frequency of propulsive peristaltic contractions; cited from earlier work
[11] = prior studies; systemic blood levels one thousand-fold greater than oral; cited from earlier work
[12] = Stage 2, fixed dose, n = 34, weekly average
[13] = Stage 2, fixed dose, n = 34, weekly average, listed as aminosterol

oral bio-availability (estimated) [3]: less than 0.3%
oral bio-availability (estimated) ([3]; listed as aminosterol): < 0.3%
systemic absorption following oral administration ([3]; listed as aminosterol): negligible
SMILES: CC(C)[C@@H](CC[C@@H](C)[C@H]1CC[C@H]2[C@@H]3[C@H](O)C[C@H]4C[C@@H](NCCCNCCCCN)CC[C@]4(C)[C@H]3CC[C@]12C)OS(=O)(=O)O (single isomer, unassigned) [squalamine (ENT-01), squalamine]
CSBM (mean, SD) [1, 12]: 3.8 CSBM/week and 3.8 (2.4) CSBM/week
Suppository use / rescue medication (mean, SD) [1, 12]: 0.3 /week and 0.3 (0.67) /week
CSBM (mean, SD) [1, 13]: 3.8 CSBM/week
SBM (mean, SD) [1, 13]: 4.5
Suppository use / rescue medication (mean, SD) [1, 13]: 0.3 /week
prokinetic dose (mean) ([1]; patients with baseline ≥1 CSBM/week): 120 mg
Diarrhea, Mild ([2]; Stage 2 (34 dosed)): 12 (35)^ n, %
Difficulty falling asleep, Mild ([2]; Stage 2 (34 dosed)): 1 (3)^ n, %
Eye infection, Mild ([2]; Stage 2 (34 dosed)): 1 (3)^ n, %
Flatulence, Mild ([2]; Stage 2 (34 dosed)): 1 (3)^ n, %
Nausea, Mild ([2]; Stage 2 (34 dosed)): 18 (52)^ n, %
Urinary retention, Mild ([2]; Stage 2 (34 dosed)): 1 (3)^ n, %
Urinary tract infection, Mild ([2]; Stage 2 (34 dosed)): 1 (3)^ n, %
Worsening hemorrhoid, Mild ([2]; Stage 2 (34 dosed)): 1 (3)^ n, %
patients with worsening of hemorrhoids ([2]; all dosed, 1/44): 2.2%
patients with worsening of acid reflux ([2]; all dosed, 2/44): 4.5%
patients with flatulence ([2]; all dosed, 3/44): 6.8%
patients with vomiting ([2]; all dosed, 3/44): 6.8%
patients with dizziness ([2]; all dosed, 8/44): 18%
patients with abdominal pain ([2]; all dosed, 11/44): 32%
Serious adverse event (SAE) ([2]; withdrawal period, considered unrelated to study medication): One patient had a lower GI bleed
patients in whom hallucinations and delusions improved or disappeared during treatment [4]: improved or disappeared during treatment in five
patients in whom hallucinations and delusions improved or disappeared during treatment ([4]; listed as aminosterol): improved or disappeared during treatment in five
total sleep time vs baseline [5]: consistently higher than baseline
effect on circadian rhythm of skin temperature [6]: significant positive impact; also recorded: improved all markers of healthy circadian function
effect on circadian rhythm of skin temperature ([6]; listed as Aminosterol): improved all markers of healthy circadian function
improvement of CFI during wash-out ([6]; wash-out period, p=0.004): persisted
improvement of IS during wash-out ([6]; wash-out period, p=0.008): persisted
systemic absorption following oral administration [7]: negligible
systemic absorption following oral administration [8]: negligible
systemic absorption following oral administration [9]: negligible

SMILES: CC(C)[C@@H](CC[C@@H](C)[C@H]1CC[C@H]2[C@@H]3[C@H](O)C[C@H]4C[C@@H](NCCCNCCCCN)CC[C@]4(C)[C@H]3CC[C@]12C)OS(=O)(=O)O [squalamine]
systemic absorption following oral administration [3]: not significantly absorbed into the systemic circulation
gastro-intestinal motility (mouse models of PD): stimulates gastro-intestinal motility
effect on IPANs of the ENS [10]: excitation of IPANs
gastrointestinal motility after intravenous administration [11]: not associated with increased gastrointestinal motility
